The results in this text go back to ChEMBL document CHEMBL5532637, “Antimicrobial activity of natural and semi-synthetic carbazole alkaloids” (Eur J Med Chem, 2023).

Values after ≈ are worked out from the molar mass of the structure shown.

Assay [1] concerns Candida albicans. As to the kind of experiment: Antifungal activity against Candida albicans assessed as inhibition of fungal growth incubated for 24 hrs by microplate reader assay. The assay is classed as functional.
The next assay concerns Candida parapsilosis. As to the kind of experiment: Antifungal activity against Candida parapsilosis assessed as inhibition of fungal growth incubated for 24 hrs by microplate reader assay. It counts as functional. Conditions: Lodderomyces parapsilosis.
The subject of assay [2] is Nakaseomyces glabratus. As to the kind of experiment: Antifungal activity against Candida glabrata assessed as inhibition of fungal growth incubated for 24 hrs by microplate reader assay. It counts as functional.
The subject of assay [3] is Staphylococcus aureus. As to the kind of experiment: Antibacterial activity against Staphylococcus aureus ATCC 6538 assessed as zone of inhibition at 40 ug/ml incubated for 24 hrs by disk diffusion method. The assay is classed as functional. Conditions: read-out: IZ. On the technique in general: Agar diffusion results depend on both activity and mobility in agar.
Assay [4] deals with Bacillus subtilis. Kind of assay: Antibacterial activity against Bacillus subtilis ATCC 6633 assessed as zone of inhibition at 40 ug/ml incubated for 24 hrs by disk diffusion method. It counts as functional. Particulars: read-out: IZ.
The test system of assay [5] is Klebsiella pneumoniae. As to the kind of experiment: Antibacterial activity against Klebsiella pneumoniae ATCC 13883 assessed as zone of inhibition at 40 ug/ml incubated for 24 hrs by disk diffusion method. The assay is classed as functional. Conditions: read-out: IZ.
Assay [6] relates to Escherichia coli. Kind of assay: Antibacterial activity against Escherichia coli ATCC 25922 assessed as zone of inhibition at 40 ug/ml incubated for 24 hrs by disk diffusion method. Conditions: read-out: IZ. It counts as functional.
Assay [7] concerns Staphylococcus aureus. As to the kind of experiment: Antibacterial activity against Staphylococcus aureus ATCC 6538 assessed as inhibition of bacterial growth incubated for 24 hrs by disk diffusion method. The assay is classed as functional.
For assay [8], the system named is Bacillus subtilis. Kind of assay: Antibacterial activity against Bacillus subtilis NRRL B-14819 assessed as inhibition of bacterial growth incubated for 24 hrs by disk diffusion method. It counts as functional.
The subject of a further assay is Micrococcus luteus. As to the kind of experiment: Antibacterial activity against Micrococcus luteus ATCC 21881 assessed as inhibition of bacterial growth incubated for 24 hrs by disk diffusion method. The assay is classed as functional.
In assay [9] the test system is Escherichia coli. Kind of assay: Antibacterial activity against Escherichia coli ATCC 25922 assessed as inhibition of bacterial growth incubated for 24 hrs by disk diffusion method. The assay is classed as functional.
In assay [10] the test system is Candida albicans. Kind of assay: Antifungal activity against Candida albicans assessed as inhibition of fungal growth incubated for 1 hr by serial plate dilution method. The assay is classed as functional.
In assay [11] the test system is Staphylococcus aureus. As to the kind of experiment: Antimicrobial activity against Staphylococcus aureus ATCC 6538 assessed as inhibition of microbial growth by microbroth dilution method. It counts as functional.
In assay [12] the test system is Klebsiella pneumoniae. Kind of assay: Antimicrobial activity against Klebsiella pneumoniae ATCC 4352 assessed as inhibition of microbial growth by microbroth dilution method. The assay is classed as functional. (Dilution methods test growth across graded concentrations, often in twofold steps.)
Assay [13] concerns Candida albicans. Kind of assay: Antimicrobial activity against Candida albicans ATCC 10231 assessed as inhibition of microbial growth by microbroth dilution method. The assay is classed as functional.
Assay [14] concerns Staphylococcus aureus. Kind of assay: Antimicrobial activity against methicillin-resistant Staphylococcus aureus assessed as inhibition of microbial growth incubated for 18 to 24 hrs by agar broth microplate assay. It counts as functional. Particulars: time 18-24 hrs, read-out: MIC100.
The test system of a further assay is Salmonella typhimurium. As to the kind of experiment: Antimicrobial activity against Salmonella typhimurium assessed as inhibition of microbial growth incubated for 18 to 24 hrs by agar broth microplate assay. It counts as functional, Salmonella enterica subsp. enterica serovar Typhimurium. Conditions: Salmonella enterica; time 18-24 hrs; read-out: MIC100.
Assay [15] relates to Candida albicans. As to the kind of experiment: Antimicrobial activity against Candida albicans assessed as inhibition of microbial growth incubated for 18 to 24 hrs by agar broth microplate assay. Particulars: time 18-24 hrs, read-out: MIC100. It counts as functional.
Assay [16] concerns Escherichia coli. As to the kind of experiment: Antibacterial activity against Escherichia coli assessed as inhibition of bacterial growth incubated for 18 to 24 hrs by broth macrodilution assay. The assay is classed as functional. Conditions: time 18-24 hrs.
The next assay deals with Pseudomonas aeruginosa. Kind of assay: Antibacterial activity against Pseudomonas aeruginosa assessed as inhibition of bacterial growth incubated for 18 to 24 hrs by broth macrodilution assay. The assay is classed as functional. Particulars: time 18-24 hrs.
In a further assay the test system is Salmonella typhi. Kind of assay: Antibacterial activity against Salmonella typhi assessed as inhibition of bacterial growth incubated for 18 to 24 hrs by broth macrodilution assay. Particulars: Salmonella enterica; time 18-24 hrs. The assay is classed as functional, Salmonella enterica subsp. enterica serovar Typhi.
The subject of assay [17] is Candida albicans. As to the kind of experiment: Antifungal activity against Candida albicans ATCC 10231 assessed as inhibition of fungal growth incubated for 24 hrs by broth dilution method. The assay is classed as functional.
Assay [18] relates to Nakaseomyces glabratus. Kind of assay: Antifungal activity against Candida glabrata DSM 11226 assessed as inhibition of fungal growth incubated for 24 hrs by broth dilution method. The assay is classed as functional.
The next assay has as its system Pichia kudriavzevii. As to the kind of experiment: Antifungal activity against Candida krusei DSM 6128 assessed as inhibition of fungal growth incubated for 24 hrs by broth dilution method. The assay is classed as functional.
In assay [19] the test system is Staphylococcus aureus. Kind of assay: Antimicrobial activity against Staphylococcus aureus assessed as zone of inhibition at 40 ug/ml. The assay is classed as functional. Particulars: read-out: IZ.
Assay [20] has as its system Bacillus subtilis. Kind of assay: Antimicrobial activity against Bacillus subtilis assessed as zone of inhibition at 40 ug/ml. The assay is classed as functional. Particulars: read-out: IZ.
The subject of assay [21] is Klebsiella pneumoniae. As to the kind of experiment: Antimicrobial activity against Klebsiella pneumoniae assessed as zone of inhibition at 40 ug/ml. The assay is classed as functional. Particulars: read-out: IZ.
For assay [22], the system named is Escherichia coli. Kind of assay: Antimicrobial activity against Escherichia coli assessed as zone of inhibition at 40 ug/ml. It counts as functional. Particulars: read-out: IZ.
In the next assay the test system is Aspergillus niger. As to the kind of experiment: Antimicrobial activity against Aspergillus niger assessed as zone of inhibition at 50 ug/ml. Particulars: read-out: IZ. The assay is classed as functional.
The next assay relates to Aspergillus flavus. Kind of assay: Antimicrobial activity against Aspergillus flavus assessed as zone of inhibition at 50 ug/ml. It counts as functional. Particulars: read-out: IZ.
The test system of another assay is Fusarium oxysporum. Kind of assay: Antimicrobial activity against Fusarium oxysporum assessed as zone of inhibition at 50 ug/ml. The assay is classed as functional. Particulars: read-out: IZ.
Assay [23] concerns Staphylococcus aureus. Kind of assay: Antibacterial activity against Staphylococcus aureus PTCC 1133 assessed as inhibition of bacterial growth by serial dilution assay. It counts as functional.
Assay [24] concerns Escherichia coli. Kind of assay: Antibacterial activity against Escherichia coli PTCC 1330 assessed as inhibition of bacterial growth by serial dilution assay. The assay is classed as functional.
In assay [25] the test system is Staphylococcus aureus. As to the kind of experiment: Antibacterial activity against Staphylococcus aureus ATCC 6538 assessed as inhibition of bacterial growth incubated for 24 hrs by alamar blue assay. The assay is classed as functional. (Alamar Blue is a resazurin reagent that responds to reducing activity.)
Assay [26] deals with Staphylococcus epidermidis. As to the kind of experiment: Antibacterial activity against Staphylococcus epidermidis ATCC 12228 assessed as inhibition of bacterial growth incubated for 24 hrs by alamar blue assay. The assay is classed as functional.

Take `COc1ccc(CNCCCn2c3ccccc3c3ccccc32)cc1`: the MIC80 (in general, an inhibitory concentration at the 80% level, which refers to growth in some studies and to a panel of isolates in others) stood at 16 µg/mL (≈ 46.4 µM) in the assay on Candida albicans [1], 8 µg/mL (≈ 23.2 µM) in the assay with Candida parapsilosis and 4 µg/mL (≈ 11.6 µM) in the assay with Nakaseomyces glabratus [2].

For the compound `CCn1c2ccccc2c2cc(-c3cc(=O)c4ccccc4o3)ccc21`, the zone of inhibition at 40 µg/mL came out at 24 mm in the assay with Staphylococcus aureus [3], 25 mm with Bacillus subtilis [4], 27 mm in the assay on Klebsiella pneumoniae [5] and 29 mm in the assay on Escherichia coli [6].

`CC1=NN(c2ccccc2)C(=O)/C1=N\NNC(=O)Cn1c2ccccc2c2ccccc21`: the MIC in the assay with Staphylococcus aureus [7] was 1.1 µg/mL (≈ 2.59 µM); in the assay on Bacillus subtilis [8], 1.2 µg/mL (≈ 2.83 µM); in the assay on Micrococcus luteus it was 3.1 µg/mL (≈ 7.3 µM); in the assay with Escherichia coli [9], 6.4 µg/mL (≈ 15.1 µM); with Candida albicans [10], 9.6 µg/mL (≈ 22.6 µM).

In the case of `Oc1c(/C=N/c2ccc(Cl)cc2Cl)ccc2[nH]c3ccccc3c12`, the MIC in the assay on Staphylococcus aureus [11], in the assay with Klebsiella pneumoniae [12] and in the assay with Candida albicans [13] was 1.4 µg/mL in each case.

Turning to `O=c1[nH]n(-c2ccccc2)c(=O)c2cc3c(cc12)[nH]c1ccc([N+](=O)[O-])cc13`, the MIC was 12 µg/mL in the assay on Staphylococcus aureus [14], over 512 µg/mL in the assay with Salmonella typhimurium and 32 µg/mL with Candida albicans [15].

`CCOC(=O)C1=C(C)NC2=C(C(=O)CC(C)(C)C2)C1c1ccc2c(c1)c1ccccc1n2CC` (stereo not given): the MIC in the assay with Escherichia coli [16], with Pseudomonas aeruginosa and in the assay with Salmonella typhi was 16 µg/mL (≈ 35 µM) each time.

On to `CNc1nc(Nc2ccc3[nH]c4ccc(Nc5cnc(N)c(NC)n5)cc4c3c2)cnc1N`, for which the MIC came out at 250 µg/mL (≈ 566 µM) with Candida albicans [17], 62.5 µg/mL (≈ 142 µM) in the assay with Nakaseomyces glabratus [18] and 31.2 µg/mL (≈ 70.8 µM) in the assay with Pichia kudriavzevii.

For the compound `CCn1c2ccccc2c2cc(/C=C/C(=O)c3cc(Cl)cc(Cl)c3OCc3cn(Cc4ccccc4)nn3)ccc21`, the zone of inhibition at 40 µg/mL with Staphylococcus aureus [19] came to 21.4 mm; in the assay on Bacillus subtilis [20], 24.2 mm; in the assay with Klebsiella pneumoniae [21] it was 23.6 mm; in the assay on Escherichia coli [22] it was 26.4 mm. Further, the zone of inhibition at 50 µg/mL amounted to 15 mm with Aspergillus niger, 12.9 mm in the assay on Aspergillus flavus and 15.3 mm in the assay on Fusarium oxysporum.

Take `CCC(O)Cn1cc(Cn2c3ccccc3c3ccccc32)nn1` (stereo not given): the MIC50 (usually the lowest concentration that inhibits either 50% of growth or 50% of the strains tested, depending on the study) in the assay with Staphylococcus aureus [23] was 1.56 µg/mL (≈ 4.88 µM); in the assay on Escherichia coli [24], 3.12 µg/mL (≈ 9.75 µM).

`COc1ccccc1OCCNCC(O)COc1cccc2[nH]c3ccccc3c12` (stereo not given) [CARVEDILOL]: the MIC (in the assay on Staphylococcus aureus [25]; in assay [26]) was 40 µg/mL (≈ 98.4 µM) in each case.
